The values below come from publication PMC9049325 (ChemMedChem, 2020).

Like-named read-outs stand apart in the source and are kept apart here.

In series [1] the target is p97 D649A/T688A double mutant. Put plainly: p97 ATPase activity assay, D649A/T688A double mutant. It counts as biochemical. The following applies: protein concentration and reaction time each increased 4-fold.
Series [2] has as its system CB-5083 resistant p97 mutants. The experiment in a line: p97 ATPase activity assay, panel of CB-5083 resistant mutants. Type of series: biochemical. As to conditions: among CB-5083 resistant mutants.
The test system of a further series is seven cancer lines. Put plainly: Cancer cell proliferation assay. Type of series: cell-based. As to conditions: for IC50: read-out: IC50 for inhibition of proliferation.
In series [3] the test system is CB-R-HCT116 cells (p97 D649A/T688A). The experiment in a line: Cell proliferation, CB-5083 resistant HCT116 versus parental HCT116. It counts as cell-based. As to conditions: for sensitivity of CB-R-HCT116 compared with parental HCT116: cell proliferation.
A further series has as its system CB-R-HCT116 cells. Put plainly: Western blot of UPR / p97 inhibition biomarkers, CB-R-HCT116. It counts as cell-based. As to conditions: CB-R-HCT116, 10 μM, 6 hours.
In another series the test system is HCT116 cells. The following applies: HCT116, 2.5 μM, 6 hours.
The target in another series is p97 ATPase (Homo sapiens, UniProt P55072). Put plainly: Steady-state kinetic analysis of p97 ATPase inhibition. Type of series: biochemical. The following applies: ten ATP concentrations, 2 or 3 inhibitor concentrations.
Chain of p97 ATPase (P55072 whole entry): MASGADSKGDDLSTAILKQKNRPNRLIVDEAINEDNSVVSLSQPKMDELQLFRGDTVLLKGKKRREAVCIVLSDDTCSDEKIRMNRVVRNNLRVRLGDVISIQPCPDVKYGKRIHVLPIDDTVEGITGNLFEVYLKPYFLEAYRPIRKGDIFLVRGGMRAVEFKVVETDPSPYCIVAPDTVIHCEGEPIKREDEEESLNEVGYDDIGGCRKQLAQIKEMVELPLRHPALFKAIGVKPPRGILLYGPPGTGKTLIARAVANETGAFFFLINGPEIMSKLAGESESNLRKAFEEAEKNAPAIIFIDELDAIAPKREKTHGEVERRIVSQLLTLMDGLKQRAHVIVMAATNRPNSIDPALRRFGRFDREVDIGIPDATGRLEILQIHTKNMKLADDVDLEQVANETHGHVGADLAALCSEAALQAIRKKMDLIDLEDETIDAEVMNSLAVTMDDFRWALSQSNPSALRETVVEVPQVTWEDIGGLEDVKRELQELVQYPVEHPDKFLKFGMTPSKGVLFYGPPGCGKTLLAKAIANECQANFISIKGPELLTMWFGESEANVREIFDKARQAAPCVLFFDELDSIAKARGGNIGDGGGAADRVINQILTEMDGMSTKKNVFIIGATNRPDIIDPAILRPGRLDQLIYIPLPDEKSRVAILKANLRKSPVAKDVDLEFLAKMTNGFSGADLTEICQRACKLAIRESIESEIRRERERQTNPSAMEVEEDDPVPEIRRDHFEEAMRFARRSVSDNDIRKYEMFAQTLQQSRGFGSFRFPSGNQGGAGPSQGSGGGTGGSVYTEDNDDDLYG
Series [4] concerns A549 cells. Put plainly: Intracellular compound concentration determination.
In series [5] the target is T1, WT p97 (Homo sapiens, UniProt P55072). The experiment in a line: p97 ATPase activity assay, WT. Type of series: biochemical.
T1 sequence (P55072 whole entry): as above
For the next series, the target named is p97 T688A mutant (Homo sapiens, UniProt P55072, T688A). Put plainly: p97 ATPase activity assay, T688A mutant. It counts as biochemical.
Chain of p97 T688A mutant (P55072 whole entry T688A): as the sequence (P55072 whole entry) above, with T688A counted along it
In series [6] the target is T1, WT p97. The experiment in a line: Thermal shift assay. Type of series: binding. The following applies: TSA, WT compared with N660K and T688A.
Series [7] deals with A549 cells.

On to `Cc1cc2c(C(N)=O)cccc2n1-c1nc2c(c(NCc3ccccc3)n1)COCC2` [CB-5083], for which the “IC50 increase toward D649A/T688A vs WT p97” value in [1] is given as “about 400 fold”. Besides, the “mutants most resistant to inhibition” value in series [2] was “N660K and T688A are the most resistant”. Besides, the IC50 with seven cancer lines was in the range of 500 to 4000 nM. The inhibition of proliferation result in series [3] (CB-R-HCT116, 10.5 μM) was “only slightly inhibited”. For the same compound, the “sensitivity of CB-R-HCT116 compared with parental HCT116” value in series [3] is listed as “unaffected”. The “changes in biomarkers (K48 ubiquitination, ATF4, CHOP, p62)” value is “no effects on these biomarkers” with CB-R-HCT116 cells; “accumulation of K48 ubiquitination, ATF4 and CHOP” in the series with HCT116 cells.
For `Cc1cc(OCc2nnc(SC3CCCC3)n2-c2cccnc2)ccc1-c1ccc(S(C)(=O)=O)cc1` [NMS-873], on p97 ATPase, the mechanism of inhibition entry is reported as “noncompetitive inhibitor”. In addition, the IC50 in the series on seven cancer lines was 500 to 4000 nM. In addition, in series [3], the “sensitivity of CB-R-HCT116 compared with parental HCT116” value is listed as “slightly more sensitive”. Also, the intracellular concentration reached result in the series on A549 cells [4] is listed as “millimolar”.
Take `COc1cccc2c(NCc3ccccc3)nc(-n3c(N)nc4ccccc43)nc12` [ML240]: the “mutants most resistant to inhibition” value in [2] is “N660K and T688A are the most resistant”.
With `c1ccc(CNc2nc(N3CCOc4ccccc43)nc3c2CCCC3)cc1` [ML241], the “mutants most resistant to inhibition” value in [2] was “N660K and T688A are the most resistant”.
In the case of `CC(C)N1CCN(CCNC2CCN(c3cccc(-c4cc5cc(F)ccc5[nH]4)c3)CC2)CC1` [UPCDC-30245], at WT p97 [5] (WT p97), the “fold less potent than NMS-873 in the ATPase activity assay” value was 12 fold. Further, the IC50 at WT p97 [5] (read-out: IC50 toward WT p97 ATPase activity, biochemical assay) stood at 300 nM. Besides, at p97 T688A mutant, the “fold resistance of T688A (IC50 increase vs WT)” value amounted to 3 fold. Further, in series [1], the “IC50 increase toward D649A/T688A vs WT p97” value worked out at 2 fold. For the same compound, the “effect on Tm of WT, N660K and T688A p97” value at WT p97 [6] is recorded as “did not stabilize WT or either mutant p97 protein”. Further, on p97 ATPase, the mechanism of inhibition entry is on record as “noncompetitive inhibition”. Further, the “potency at inhibiting cell proliferation compared with NMS-873” value in the series with seven cancer lines (HT29 cells) was “more potent”. Further, in series [3], the “sensitivity of CB-R-HCT116 compared with parental HCT116” value is “similarly sensitive”. Also, in the series on A549 cells [7], the intracellular concentration reached entry was “millimolar” and the “time to steady-state intracellular concentration” value was found to be 3 h. Also, the “intracellular concentration relative to NMS-873” value with A549 cells [4] (5 μM) was found to be 12 fold.
